These results are taken from patent US12630600B2 (MEDIMMUNE LIMITED, priority 2022, dated 2026).

Starred links: 1 amine or outer side, 2 acyl side, 3 side chain; linkers in the order of their positions; H or OH if unused. Non-standard residues stand in square brackets, D forms with d. Residues, ends and D or L forms follow the SMILES beside them. Groups on a side chain read outwards from the residue. No end group written: not given here. *: point of attachment. C20 diacid = O=C(O)CCCCCCCCCCCCCCCCCCC(=O)*; C18 diacid = O=C(O)CCCCCCCCCCCCCCCCC(=O)*; γGlu = O=C(O)[C@H](CCC(=O)[*:2])N[*:1]; Stearoyl = CCCCCCCCCCCCCCCCCC(=O)*; αMeF = C[C@](N)(Cc1ccccc1)C(=O)O; PEG2 = NCCOCCOCCC(=O)O; AEEA = NCCOCCOCC(=O)O; Aib = CC(C)(N)C(=O)O

In data set [1] the target is T1, human GLP-1 receptor (hGLP-1R) (Homo sapiens, UniProt P43220).
T1 construct: expressed in transfected cells; host or cells: CHO
T1 sequence (P43220 24-463): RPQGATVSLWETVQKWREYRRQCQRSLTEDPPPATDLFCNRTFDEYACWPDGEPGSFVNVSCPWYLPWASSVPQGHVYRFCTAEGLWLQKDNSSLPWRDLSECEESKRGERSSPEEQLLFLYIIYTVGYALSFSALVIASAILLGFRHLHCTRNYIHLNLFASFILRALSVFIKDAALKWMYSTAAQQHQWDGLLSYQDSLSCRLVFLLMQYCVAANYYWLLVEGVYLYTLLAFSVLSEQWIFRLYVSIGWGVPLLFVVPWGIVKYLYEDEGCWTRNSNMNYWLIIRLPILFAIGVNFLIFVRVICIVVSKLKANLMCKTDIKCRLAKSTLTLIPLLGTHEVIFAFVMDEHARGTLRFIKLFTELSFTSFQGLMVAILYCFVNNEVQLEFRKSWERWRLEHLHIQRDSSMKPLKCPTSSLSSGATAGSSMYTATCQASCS
The experiment in a line: cAMP production (HTRF) in CHO cells expressing human GLP-1 receptor. In kind it is cell-based. Conditions: Table 8; % GLP-1R activity relative to GLP-1 / % GlucR activity relative to glucagon. In general terms: Changes in cAMP serve as a functional read-out for many G protein-coupled receptors.

In a further data set the test system is wildtype (WT) mice. The experiment in a line: Glucose change in wildtype mice. In kind it is in vivo, mouse. Particulars: s.c. The procedure: […] and wildtype (WT) mice at 8-14 weeks of age were singly housed on standard chow diet (Envigo, 2918) and automatic water. They acclimated for a minimum of ˜1-2 weeks, and mice were sorted into groups (n=4-8/group) based on body weight. On day of study, mice were fasted briefly for 2 hrs prior to study start. In some studies, mice were pre-treated with octreotide (BaChem, 10 mg/kg) at 30 minutes prior to peptide injection. Glucose was measured via glucometer at various timepoints including −30 min (prior to octreotide when used in studies), 0 min (before peptide dose), 30, 60, 120, 180, 240, and 360 minutes. Since these studies are acute in nature, mice were re-used for multiple studies (no more than 3) and always allowed at least a minimum wash-out period of 1 week.

A further data set concerns the target T2, neprilysin (Homo sapiens, UniProt P08473).
T2 construct: purchased R&D Systems 1182-ZNC-010
The experiment in a line: Proteolytic resistance to neprilysin. It counts as in vitro ADME. Conditions: pH 8.3. The procedure:
10.0 μg (˜10 units) recombinant Neprilysin (R&D Systems: 1182-ZNC-010) was reconstituted to 100 μL (100 μg/mL, ˜100 units/mL) in assay buffer (50 mM Tris, 50 mM NaCl, 50 mM NaHCO3, adjusted to pH 8.3) to give the enzyme stock solution. Peptide stock solutions were prepared to a concentration of ˜250 μM (˜1.0 mg/mL of 4 kDa peptide) in assay buffer. 100 μL (10 μg, ˜10 units) of neprilysin stock solution was added to 100 μL of peptide stock solution (1.0 mg/mL, ˜100 μg of peptide) and the mixture was co-incubated in a temperature regulated incubator at 37° C. for the duration of the experiment. 25 μL aliquots (˜12.5 μg initial peptide) of the peptide-enzyme mixture were periodically withdrawn (t=0, 30 mins, 1 h, 2 h, 4 h and 24 h) and quenched immediately by addition to an equal volume ([…]) of 10% TFA (v/v) in 1:1 water/acetonitrile to arrest proteolytic activity. The quenched aliquot centrifuged at 7800 rpm, and 30 μL of the supernatant was analyzed by analytical RP-HPLC as follows: Analytical RP-HPLC method: Agilent Polaris C8-A column (4.6×100 mm, 3 micron) eluted with a linear binary gradient of 10-90% MeCN (0.1% TFA v/v) in water (0.1% TFA v/v) over either 10 or 15 mins at 1.5 mL min^−1 at 40° C. with detection by UV absorption at 210 nm. Manual integration (AUC) allowed estimation of remaining intact peptide over the time course of the experiment.

A further data set relates to Male C57Bl/6 mice. Kind of data set: Mouse acute food intake study. It counts as in vivo. Particulars: s.c., dose 10 nmol/kg, food intake at 24 h vs vehicle. The procedure: Male C57Bl/6 mice obtained from Jackson Laboratories or Charles River at 8-9 weeks of age and were housed one per cage in BioDaq (Research Diets) cages. Mice were placed on Alpha Dri bedding, standard chow diet (Envigo, 2018) and given water pouches. Mice were allowed to acclimate for 1-2 weeks. Body weight was measured to ensure appropriate acclimation. After acclimation, mice were sham dosed a minimum of 2 times prior to initiation of food intake study. On study day, mice were placed in clean cage bottoms, weighed, and fasted for 6-8 hours. Mice were sorted into groups based on average 24-hour food intake data and body weight. 1-2 hours prior to lights out, mice were dosed subcutaneously with one vehicle or test peptide dissolved in an appropriate vehicle at 5 mL/kg. Mice were left undisturbed and allowed access to food and water for 48 hours. Automated food intake was monitored in the BioDaq system was monitored during this time. Discrete food intake data was exported into MS Excel from which cumulative food intake data was generated and analyzed.

Another data set addresses human glucagon receptor (human, UniProt P47871). The experiment in a line: cell-based or functional assay.

T2 sequence (P08473 whole entry): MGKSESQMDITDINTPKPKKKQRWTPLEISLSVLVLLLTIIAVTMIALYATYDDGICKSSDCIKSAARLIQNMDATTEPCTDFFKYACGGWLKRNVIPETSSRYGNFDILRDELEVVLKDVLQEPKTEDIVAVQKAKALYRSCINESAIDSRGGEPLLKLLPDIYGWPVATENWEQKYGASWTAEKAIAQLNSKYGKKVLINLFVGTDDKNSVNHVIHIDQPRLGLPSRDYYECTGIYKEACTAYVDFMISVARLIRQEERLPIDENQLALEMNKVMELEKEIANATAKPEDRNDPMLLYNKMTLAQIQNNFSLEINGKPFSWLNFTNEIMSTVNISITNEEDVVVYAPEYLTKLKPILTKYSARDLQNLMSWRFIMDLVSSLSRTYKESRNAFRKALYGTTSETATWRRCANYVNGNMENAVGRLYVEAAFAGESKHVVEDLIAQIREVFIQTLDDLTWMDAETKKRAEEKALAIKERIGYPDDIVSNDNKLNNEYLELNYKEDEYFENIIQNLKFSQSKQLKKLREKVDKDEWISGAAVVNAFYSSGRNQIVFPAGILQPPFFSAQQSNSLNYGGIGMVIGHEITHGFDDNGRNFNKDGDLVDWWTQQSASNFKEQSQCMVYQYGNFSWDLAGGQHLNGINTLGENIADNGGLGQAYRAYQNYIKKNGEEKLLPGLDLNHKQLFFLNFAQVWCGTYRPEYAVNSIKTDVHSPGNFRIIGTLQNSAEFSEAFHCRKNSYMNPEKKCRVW

In the case of `CC[C@H](C)[C@H](NC(=O)[C@H](Cc1c[nH]c2ccccc12)NC(=O)[C@H](CCCCNC(=O)COCCOCCNC(=O)COCCOCCNC(=O)CC[C@H](NC(=O)CCCCCCCCCCCCCCCCC(=O)O)C(=O)O)NC(=O)[C@@H](NC(=O)[C@H](Cc1ccccc1)NC(=O)[C@H](CC(=O)O)NC(=O)[C@H](CCC(N)=O)NC(=O)[C@H](C)NC(=O)[C@H](C)NC(=O)[C@H](CCCNC(=N)N)NC(=O)[C@H](CO)NC(=O)[C@H](CC(=O)O)NC(=O)[C@H](CC(C)C)NC(=O)[C@](C)(Cc1ccccc1)NC(=O)[C@H](CCCCN)NC(=O)[C@H](CO)NC(=O)[C@@H](NC(=O)[C@H](CC(=O)O)NC(=O)[C@H](CO)NC(=O)[C@@H](NC(=O)[C@](C)(Cc1ccccc1)NC(=O)[C@H](CO)NC(=O)CNC(=O)[C@H](Cc1c[nH]cn1)NC(=O)C(C)(C)NC(=O)[C@@H](N)Cc1c[nH]cn1)[C@@H](C)O)C(C)C)C(C)C)C(=O)N[C@@H](C)C(=O)N[C@@H](CC(N)=O)C(=O)N[C@H](C(N)=O)[C@@H](C)O` [Peptide 361] (H-H[Aib]HGS[αMeF]TSDVSK[αMeF]LDSRAAQDFVK([AEEA-AEEA-γGlu-C18 diacid])WIANT-NH2), the “% Relative Potency Ratio” value in data set [1] was 1.3. Moreover, in the data set on wildtype (WT) mice (10 nmol/kg, somatostatin pretreatment 30 min prior to cpd), the “WT % glucose change 120 min” value is −23.0%.
Turning to `CC(C)C[C@H](NC(=O)[C@H](Cc1c[nH]c2ccccc12)NC(=O)[C@H](CCCNC(=N)N)NC(=O)[C@@H](NC(=O)[C@H](Cc1ccccc1)NC(=O)[C@H](CC(=O)O)NC(=O)[C@H](CCC(N)=O)NC(=O)[C@H](C)NC(=O)[C@H](CCCNC(=N)N)NC(=O)[C@H](CCCCNC(=O)COCCOCCNC(=O)COCCOCCNC(=O)CC[C@H](NC(=O)CCCCCCCCCCCCCCCCC(=O)O)C(=O)O)NC(=O)[C@@H](NC(=O)[C@H](CC(=O)O)NC(=O)[C@H](CC(C)C)NC(=O)[C@](C)(Cc1ccccc1)NC(=O)[C@H](CCCCN)NC(=O)[C@H](CO)NC(=O)[C@@H](NC(=O)[C@H](CC(=O)O)NC(=O)[C@H](CO)NC(=O)[C@@H](NC(=O)[C@H](Cc1ccccc1)NC(=O)[C@@H](NC(=O)CNC(=O)[C@H](CCC(N)=O)NC(=O)C(C)(C)NC(=O)[C@@H](N)Cc1c[nH]cn1)[C@@H](C)O)[C@@H](C)O)C(C)C)[C@@H](C)O)C(C)C)C(=O)N[C@@H](CC(C)C)C(=O)N[C@@H](CCC(=O)O)C(=O)NC(C)(C)C(=O)NCC(=O)O` [Peptide 140] (H-H[Aib]QGTFTSDVSK[αMeF]LDTK([AEEA-AEEA-γGlu-C18 diacid])RAQDFVRWLLE[Aib]G-OH; N-terminus assumed), in the data set with wildtype (WT) mice (30 nmol/kg, no somatostatin pretreatment), the “WT % glucose change 60 min” value is −29.0%.
`CCCCCCCCCCCCCCCCCC(=O)N[C@@H](CCC(=O)N[C@@H](CCC(=O)NCCOCCOCCC(=O)NCCOCCOCCC(=O)NCCCC[C@H](NC(=O)[C@H](CO)NC(=O)[C@H](CC(=O)O)NC(=O)[C@H](CC(C)C)NC(=O)[C@](C)(Cc1ccccc1)NC(=O)[C@H](CCCCN)NC(=O)[C@H](CO)NC(=O)[C@@H](NC(=O)[C@H](CC(=O)O)NC(=O)[C@H](CO)NC(=O)[C@@H](NC(=O)[C@](C)(Cc1ccccc1)NC(=O)[C@H](CO)NC(=O)CNC(=O)[C@H](CCC(N)=O)NC(=O)[C@H](CO)NC(=O)[C@@H](N)Cc1c[nH]cn1)[C@@H](C)O)C(C)C)C(=O)N[C@@H](C)C(=O)N[C@@H](C)C(=O)N[C@@H](CCC(N)=O)C(=O)N[C@@H](CC(=O)O)C(=O)N[C@@](C)(Cc1ccccc1)C(=O)N[C@H](C(=O)N[C@@H](CCC(N)=O)C(=O)NC(C)(C)C(=O)N[C@@H](CC(C)C)C(=O)N[C@@H](CCC(=O)O)C(=O)N[C@@H](C)C(=O)NCC(=O)NCC(N)=O)C(C)C)C(=O)O)C(=O)O` [Peptide 78] (H-HSQGS[αMeF]TSDVSK[αMeF]LDSK([PEG2-PEG2-γGlu-γGlu-Stearoyl])AAQD[αMeF]VQ[Aib]LEAGG-NH2; N-terminus assumed): the “% intact peptide over time, Neprilysin” value at neprilysin worked out at 100%. In the data set on wildtype (WT) mice (3 nmol/kg, no somatostatin pretreatment), the “WT % glucose change 120 min” value is −42.0%.
With `CC[C@H](C)[C@H](NC(=O)C(C)(C)NC(=O)[C@H](CCCCNC(=O)COCCOCCNC(=O)COCCOCCNC(=O)CC[C@H](NC(=O)CC[C@H](NC(=O)CCCCCCCCCCCCCCCCCCC(=O)O)C(=O)O)C(=O)O)NC(=O)[C@@H](NC(=O)[C@](C)(Cc1ccccc1)NC(=O)[C@H](CC(=O)O)NC(=O)[C@H](CCC(N)=O)NC(=O)[C@H](C)NC(=O)[C@H](C)NC(=O)[C@H](CCCNC(=N)N)NC(=O)[C@H](CO)NC(=O)[C@H](CC(=O)O)NC(=O)[C@H](CC(C)C)NC(=O)[C@](C)(Cc1ccccc1)NC(=O)[C@H](CCCCN)NC(=O)[C@H](CO)NC(=O)[C@@H](NC(=O)[C@H](CC(=O)O)NC(=O)[C@H](CO)NC(=O)[C@@H](NC(=O)[C@](C)(Cc1ccccc1)NC(=O)[C@H](CO)NC(=O)CNC(=O)[C@H](Cc1c[nH]cn1)NC(=O)C(C)(C)NC(=O)[C@@H](N)Cc1c[nH]cn1)[C@@H](C)O)C(C)C)C(C)C)C(=O)N[C@@H](C)C(=O)N[C@@H](CC(N)=O)C(=O)N[C@H](C(N)=O)[C@@H](C)O` [Peptide 375] (H-H[Aib]HGS[αMeF]TSDVSK[αMeF]LDSRAAQD[αMeF]VK([AEEA-AEEA-γGlu-γGlu-C20 diacid])[Aib]IANT-NH2), the “% Relative Potency Ratio” value in data set [1] came to 1.4. In the data set on Male C57Bl/6 mice, the “24 hr % Vehicle Food Intake” value was 66.0%.
Turning to H[Aib]HGS[αMeF]TSDVSK[αMeF]LDSRAAQDFVK([AEEA-AEEA-γGlu-C20 diacid])WIANT-NH2 (not fully specified) [Peptide 367], the “hGluc-R EC50 (pM)” value in the data set with human glucagon receptor was 72.4 pM.

B1: Peptide 362 (peptide)
peptide: H[Aib]HGS[αMeF]TSDVSK[αMeF]LDSRAAQDFVK([AEEA-AEEA-γGlu-γGlu-C18 diacid])WIANT-NH2
modifications: N-terminus assumed
SMILES: CC[C@H](C)[C@H](NC(=O)[C@H](Cc1c[nH]c2ccccc12)NC(=O)[C@H](CCCCNC(=O)COCCOCCNC(=O)COCCOCCNC(=O)CC[C@H](NC(=O)CC[C@H](NC(=O)CCCCCCCCCCCCCCCCC(=O)O)C(=O)O)C(=O)O)NC(=O)[C@@H](NC(=O)[C@H](Cc1ccccc1)NC(=O)[C@H](CC(=O)O)NC(=O)[C@H](CCC(N)=O)NC(=O)[C@H](C)NC(=O)[C@H](C)NC(=O)[C@H](CCCNC(=N)N)NC(=O)[C@H](CO)NC(=O)[C@H](CC(=O)O)NC(=O)[C@H](CC(C)C)NC(=O)[C@](C)(Cc1ccccc1)NC(=O)[C@H](CCCCN)NC(=O)[C@H](CO)NC(=O)[C@@H](NC(=O)[C@H](CC(=O)O)NC(=O)[C@H](CO)NC(=O)[C@@H](NC(=O)[C@](C)(Cc1ccccc1)NC(=O)[C@H](CO)NC(=O)CNC(=O)[C@H](Cc1c[nH]cn1)NC(=O)C(C)(C)NC(=O)[C@@H](N)Cc1c[nH]cn1)[C@@H](C)O)C(C)C)C(C)C)C(=O)N[C@@H](C)C(=O)N[C@@H](CC(N)=O)C(=O)N[C@H](C(N)=O)[C@@H](C)O
On to B1, for which the “hGluc-R EC50 (pM)” value with human glucagon receptor was 42.8 pM.
